# Test results from patent US20010006966A1, “Use of 1- (aminoalkyl) -3-quinoxaline-2-on derivatives for the preparation of compounds having an antioxidant action” (priority 1998, published 2001).
# Key:
# skin cancer = assay: Prevention of skin cancer in UV-irradiated guinea pigs; type: in vivo; settings: highly concentrated solution brushed on shaved neck; for cancer cells in tissue samples after two weeks of UV irradiation: UV-A, UV-B, UV-C at least two hours per day
# Excerpt: Use of 1-(aminoalkyl)-3-quinoxaline-2-on derivatives for preventing skin cancer in guinea pigs.
# A group of six guinea pigs was shaved in the neck region and exposed to intensive UV irradiation over a period of at least two hours per day. The UV irradiation contained portions of both UV-A and UV-B and UV-C rays. A highly concentrated solution of Caroverine.hydrochloride was brushed on the shaved neck regions of four of the six guinea pigs prior to the commencement of the first irradation, wherein attention was paid to that the distribution was effected as uniform as possible and over all of the irradiated zone.
# [1] = Treatment of patients suffering from Alzheimer's disease; type: in vivo, human; settings: three weeks
# Excerpt: By way of two male patients aged between 70 and 75 and suffering from Alzheimer's disease, the effect of Caroverine as a neuroregenerative substance was further investigated. The patients had average body weights of 75 kg and were in-patients. […] The time of treatment in each case was maintained for three weeks.
# [2] = tested on: metabotropic group I glutamate receptors; assay: Microelectrodes on the auditory nerve of the narcotized animal; type: in vivo, guinea pigs
# Excerpt: Furthermore, the inhibiting influence of Caroverine on the metabotropic group I glutamate receptors was investigated on the narcotized animal by applying microelectrodes to the auditory nerve.
# Ca2+ ion flux into cells = settings: as stated in EP-A 0 032 564; cited from earlier work
# [3] = tested on: advanced head and throat tumors; assay: Patients with advanced head and throat tumors, added to chemotherapy; type: in vivo, human; settings: beside the regular chemotherapy
# [4] = Comparative kinetic studies with ABTA, hydroxyl radicals; type: biochemical; settings: absence or presence of cerebral homogenate
# Experimental: (§1) In respect of the antioxidative effect of 1-(aminoalkyl)-3-quinoxaline-2-on derivatives and in respect of their radical interceptor properties, in vitro tests were carried out with Caroverine and the specific radical intercepting reagent 2,2′-azino-bis(3-ethylbenz)thiazoline-6-sulfonic acid (ABTA) in order to compare the radical interceptor property of Caroverine with that of ABTA. In the presence of highly reactive radicals, ABTA is oxidized to the stable thiazoline cation radical ABTA^+. The intensive green color of that radical was photometrically measured with a main absorption band at 420 nm. […] Caroverine reacted rapidly with free hydroxyl, peroxyl and ABTA cation radicals, as was shown in comparative studies with ABTA in the absence and in the presence of cerebral homogenate. The rate constant for the reaction with hydroxyl radicals was 0.4×10^10 M/l/s and that for peroxyl radicals was 0.5×10^10 M/l/s, as was realized by comparative kinetic studies with ABTA in the absence or in the presence of cerebral homogenate (FIG. 6). […] In doing so, ABTA cation radical formation and reduction were applied, as already mentioned, in order to examine the single electron transfer reactions, since that substance enables direct measurements of radical formation and radical reduction on account of its color.
# [5] = human, in vivo
# [6] = Treatment of patients suffering from periodic schizophrenia; type: in vivo, human
# Experimental: 4 patients, two female and two male patients, aged between 40 and 50 and suffering from periodic schizophrenia were treated with elevated doses of Caroverine during massive attacks. […] The treatment time was 7 days, 14 days and 21 days, respectively.
# [7] = Comparative kinetic studies with ABTA, peroxyl radicals; type: biochemical; settings: absence or presence of cerebral homogenate
# Experimental: as §1
# nerve cells = assay: In vitro tests for neuroregenerative effect; type: cell-based; settings: low dosages, dosages known from the literature
# HIV = HIV replication in macrophages derived from monocytes; type: cell-based
# [8] = ABTA cation radical formation and reduction, photometric at 420 nm; type: biochemical
# Experimental: as §1
# [9] = Speech and articulation capacity of a patient after a stroke; type: in vivo, human; settings: 4×160 mg i.v. per day, 3 months, approximately 50% at beginning of treatment
# Experimental: A patient suffering from serious speech impediments due to a stroke was intravenously administered Caroverine over a period of 3 months at an elevated dose of 4×160 mg Caroverine in physiological saline per day.
# carcinoma of the colon = assay: Patients with carcinoma of the colon, added to chemotherapy; type: in vivo, human; settings: three patients; with Irinothekam and Oxaliplatine; day 1 i.v., other days 3×3 tablets a day
# Excerpt: Three patients aged between 19 and 75 and suffering from carcinoma of the colon were additionally administered Caroverine beside the usual chemotherapy with Irinothekam and Oxaliplatine for the four-week period of chemotherapy, the administration on day 1 having been effected at an elevated dose, i.e., intravenously in physiological saline, and on the other days by administering 3×3 tablets a day.
# facial nerve = assay: Treatment of patients suffering from facial nerve paralysis; type: in vivo, human
# Experimental: The neuroregenerative action of Caroverine was further investigated by way of two patients suffering from facial nerve paralysis. Two female patients suffering from a serious paralysis of the […] nerve were treated with Caroverine in the form of a combined cure over a period of 4 weeks, wherein, on the one hand, Caroverine was applied three times a day by intravenously administering 360 mg Caroverine each and the active substance, in addition, was administered in the form of a depot plaster containing 1000 mg Caroverine. The depot plaster was replaced once a week.
# [10] = Treatment of patients suffering from type I allergy (hay fever); type: in vivo, human; settings: 5 hay fever patients, tablet 150 mg three times a day
# Experimental: 5 patients, 2 female and 3 male patients, suffering from type I allergy, namely hay fever, were treated with Caroverine at the occurrence of allergical primary reactions, i.e., sneezing, cervical irritations as well as rhinorrhea. They each received one tablet containing 150 mg Caroverine three times a day.
# For comparative reasons, two patients were treated with usual antihistamines, wherein both the primary manifestations of the allergy and, in particular, the secondary manifestations could not be suppressed immediately and completely such that the patients were suffering from their disease hay fever substantially as long as straining by the causers, namely grass pollens, was maintained. Nor was it possible to discontinue the administration of the medicament as long as pollen flight was observed.
# [11] = tested on: metabotropic group I glutamate receptors; assay: Antagonism of metabotropic group I glutamate receptors in the ear of guinea pigs (behavior, ear electrodes); type: in vivo; settings: 8 mg/kg into the vein of the ear
# Experimental: Use of 1-(aminoalkyl)-3-quinoxaline-2-on derivatives as antagonists of the metabotropic group I glutamate receptors in the ear of guinea pigs.
# A group of six guinea pigs was injected hydroxyphenyl glycerin as a receptor agonist into the ear, the receptor responding in a manner so as to strongly increase the auditory performance of the guinea pigs. […] Four of the six guinea pigs were subsequently injected a dose of 8 mg/kg body weight of the guinea pig into the vein of the ear and the behavior of the guinea pigs was observed. […] These behavioral peculiarities of the guinea pigs were also observed by applying electrodes to the ears of the animals, from whose measured data it could be readily read whether the exposure of the animals to unexpected noises caused excitement or not.
# [12] = Comparative studies of antioxidant and radical interceptor property; type: biochemical
# Excerpt: wherein R is hydroxy, methoxy, ethoxy or hydrogen, or pharmaceutically acceptable salts thereof, for the preparation of compositions acting as antioxidants for preventing or treating diseases caused by free radicals of the oxygen cell metabolism, for stimulating the growth of nerve cells, antagonizing glutamate receptors and/or stimulating the growth of, in particular glutamatergic, nerve cells. […] Moreover, it has been shown in a surprising manner that specific 1-(aminoalkyl)-3-quinoxaline-2-on derivatives and, in particular, Caroverine are capable of antagonizing metabotropic glutamate receptors. Since glutamate receptors and, in particular, metabotropic glutamate receptors have been recognized as promoters or catalysts of intracellular metabolism, Caroverine and other 1-(aminoalkyl)-3-quinoxaline-2-on derivatives are capable of antagonizing, i.e., markedly retarding, in particular, that intracellular metabolism.
# For that reason, Caroverine is supposed to be able to facilitate the repair of long-lived organic radicals and damaged biomolecules.
# auditory nerve = assay: Sound audiogram in patients with severe sudden loss of hearing / cochlear implant; type: in vivo, human
# Experimental: By way of clinical examples, the efficacy of Caroverine (1-diethylaminoethyl-3-(p-methoxybenzyl)-1,2-dihydroquinoxaline-2-on) as a neuroregenerative substance was tested in two patients suffering from a severe sudden loss of hearing. In the enclosed diagram of FIG. 1, the sound audiogram of a patient is shown, the dot-and-dash line illustrating the sound audiogram after a sudden loss of hearing, the broken line illustrating the sound audiogram immediately upon commencement of the treatment, and the full line illustrating the patient's sound audiogram two weeks after the beginning of treatment, the patient over that period having been treated by the administration of an elevated dose of Caroverine. 240 mg Caroverine dissolved in 250 ml physiological saline were each slowly administered intravenously three times a day. […] A cochlear implant was not inserted.
structure (smiles),measurement,setting,value
CCN(CC)CCn1c(=O)c(Cc2ccc(OC)cc2)nc2ccccc21.Cl [Caroverine.hydrochloride],skin injuries after two weeks of UV irradiation,skin cancer,some reddening of the skin
same,cancer cells in tissue samples after two weeks of UV irradiation,skin cancer,no cancer cells could be detected
"CCN(CC)CCn1c(=O)c(Cc2ccc(OC)cc2)nc2ccccc21 [Caroverine, 1-diethylaminoethyl-3-(p-methoxybenzyl)-1,2-dihydroquinoxaline-2-on]","condition of Alzheimer patients, lower dose",[1]; 160 mg in 250 ml saline i.v. three times a day,not as pronounced and sustained
same,condition of Alzheimer patients at end of treatment,"[1]; two male patients, 400 mg infusion three times a day",marked improvement in the conditions
same,excitability of the metabotropic group I glutamate receptors,[2],strongly suppressed
same,harmful side effects on the assayed cells,assayed cells,without harmful side effects
same,inhibition of the Ca2+ ion flux into cells,Ca2+ ion flux into cells,up to 50%
same,complete disappearance of head and throat tumors,[3],No complete disappearance of the tumors was feasible
same,"tumor size, head and throat tumors",[3],reduction of the tumor size
same,rate constant for the reaction with hydroxyl radicals (FIG. 6),[4],0.4×10^10 M/l/s
same,harmful side effects in test animals and patients,[5],without harmful side effects
same,persistence of the improvement beyond the treatment time,"[6]; 400 mg infusion three times a day, 7, 14 or 21 days",only that patient whose treatment time was 21 days was successful even beyond the treatment time
same,behavior of schizophrenia patients during treatment,"[6]; 4 patients, 400 mg infusion three times a day, 7, 14 or 21 days",marked improvements in their behaviors
same,"behavior of schizophrenia patients, combination with Haloperidole",[6]; daily dose 240 mg or 400 mg Caroverine in combination with 10 mg Haloperidole,results analogous to those of the higher-dose administration of Caroverine
same,"serious side effects usual with psychopharmacological agents (apathetic conditions, weight gains)",[6]; schizophrenia patients,could be avoided
same,rate constant for the reaction with peroxyl radicals (FIG. 6),[7],0.5×10^10 M/l/s
same,neuroregenerative effect,nerve cells,no neuroregenerative effect
same,replication of HIV in macrophages derived from monocytes,HIV,markedly reduced
same,formation of the ABTA cation radical due to hydroxyl and peroxyl radicals (FIG. 5),[8]; in the absence and in the presence of cerebral homogenate,able to inhibit the formation of the ABTA cation radical
same,ABTA cation radical reduction,[8]; in the presence and in the absence of cerebral homogenate,catalyzes ABTA cation radical reduction
same,activity as an electron donor,"[8]; low, micromolar concentrations",highly active as an electron donor
same,articulation capacity after the end of treatment (FIG. 4),[9],100%
same,colon carcinoma after four-week chemotherapy plus Caroverine,carcinoma of the colon,complete disappearance of the colon carcinoma
same,signs of facial paralysis on further extension of treatment,"facial nerve; same regimen, extended period",additional reductions of the paralytical signs
same,signs of facial paralysis after 2 weeks,"facial nerve; two female patients, 360 mg i.v. three times a day plus depot plaster 1000 mg weekly",improvement in the signs of paralysis
same,secondary manifestations of the allergic reactions (cervical rubor and the like),[10],could be avoided
same,"primary reactions (sneezing, rhinorrhea and the like)",[10]; after two-day administration,completely disappeared
same,"excitement upon unexpected noises, measured data of ear electrodes",[11],excitement was effected not at all or only to an extremely slight extent
same,behavior of guinea pigs upon noise after receptor agonist hydroxyphenyl glycerin,[11]; four of six guinea pigs,calmed down immediately
same,"effectiveness relative to the known antioxidants Ascorbate, Trolox and Glutathione",[12],at least three times as effective
same,radical interceptor property relative to Melatonine,[12],reach that of Melatonine
same,"improvement of hearing performance (sound audiogram, FIG. 2), low doses","auditory nerve; patient, 160 mg three times a day",little significant
same,"hearing performance (sound audiogram, FIG. 1)","auditory nerve; patient, 240 mg in 250 ml saline i.v. three times a day, two weeks",marked increase in the hearing performance
same,"hearing performance 0.125 to 2 kHz (sound audiogram, FIG. 2), high doses plus cochlear implant","auditory nerve; patient, 240 mg/250 ml saline four times a day, two weeks, cochlear implant inserted",nearly corresponds to the hearing performance of a healthy individual
same,"hearing performance 0.250 to 8 kH (sound audiogram, FIG. 3)","auditory nerve; patient, 300 mg in 500 ml saline each day, two weeks, no cochlear implant",essentially corresponds to the hearing performance of a healthy individual
same,audition of patients carrying cochlear implants,auditory nerve; simultaneous administration with cochlear implant,clearly enhancing the audition
"CCN(CC)CCn1c(=O)c(Cc2ccc(O)cc2)nc2ccccc21 [1-diethylaminoethyl-3-(p-hydroxybenzyl)-1,2-dihydroquinoxaline-2-on]",cancer cells in tissue samples after two weeks of UV irradiation,skin cancer,identical result
same,harmful side effects on the assayed cells,assayed cells,without harmful side effects
same,harmful side effects in test animals and patients,[5],without harmful side effects
